Results: ChEMBL document CHEMBL5728747, “Benzimidazoles and indoles as taro inhibitors” (2021)
“And” between values parts separate entries of the source, which are not always exact repeats. Equal values may be shown once.

experiment: TarO Biochemical Enzymatic Assay: The TarO biochemical enzymatic assay is a liquid chromatography-mass spectroscopy (LC-MS) based end point assay that measures C55-P-P-GlcNAc (LIPID III) production. The TarO biochemical enzymatic assay was performed in a 384-well microtiter plate (Labcyte) with a reaction volume of 20 μl. The reaction mix contained 0.1 μgs/μl of TarO membrane preparation derived from MRSA COL (lysostaphin/lysozyme treated, centrifuged at 40K rpm, and re-suspended in 50 mM Tris pH 7.5, 10 mM MgCl2), 1500 μM UDP-GlcNAc, ×75 μM C55-P substrates in 83 mM Tris pH 8.0, 6.7 mM MgCl2, 6 mM CHAPS, and 8.3% DMSO buffer. The enzyme reactions were quenched by extraction in 40 μl of 1-pentanol containing 0.04 μM 15C C55-PP-GlcNAc, which was used as an internal standard. A 10 μl volume of the quenched reaction mixture (pH≈3) from each well was injected onto a reversed-phase column (C4, 5 μm, 2.1×50 mm, Thermo Scientific Biobacis-4) and eluted using a NH4Ac/H2O/MeOH gradient (solvent A: 10 mM NH4Ac in water, pH 5.6; solvent B: NH4Ac (1 M)-Isopropanol (1:90, v/v, pH 5.6). The HPLC conditions were as follows: 15% solvent B for 15 seconds followed by a gradient to 90% solvent B in 90 seconds; then solvent B was kept at 95% for 10 seconds followed by a gradient to 8% solvent B in 0.1 minute. The column was then equilibrated at 15% B for 1 minute before the next injection. The flow rate was kept constant at 600 μl/minute. Mass spectrometric detection was carried out in the negative-ion mode using selected reaction monitoring (SRM). Typical mass spectrometric conditions were as follows: heated capillary temperature, 210° C.; spray voltage, 2500 V; desolvation gas (N2), 40 l/h; auxiliary gas (N2), 35 l/h. Selected ion current (SIC) chromatograms of C55-PP-GlcNAc and internal standard 15C C55-PP-GlcNAc were plotted and integrated using LCQuan incorporated in Xcalibur software (ThermoFinnigan). The linearity of C55-PP-GlcNAc concentration versus mass spectrometric signal (AC55-PP-GlcNAc/A15C-C55-PP-GlcNAc) was determined with purified C55-PP-GlcNAc. The IC50 values were calculated using the nonlinear regression analysis (sigmoidal dose response fit allowing for a variable slope) of percent inhibition data with minimum and maximum values set to 0 and 100 percent.

SMILES | IC50
CCN(C(=O)CCn1c(-c2ccc(C(=O)OC)cc2)nc2ccccc21)C1CCCCC1 | 130 nM
CCN(C(=O)CCn1c2cc(CO)ccc2nc1[C@H]1CC[C@H](CC)CC1)C1CCCCC1 | 120 nM
CCN(C(=O)CCn1c2ccc(F)cc2nc1[C@H]1CC[C@H](CC)CC1)C1CCCCC1 | 40 nM
CCN(C(=O)CCn1c(C2CCCN(C(=O)OC(C)(C)C)C2)nc2cc(F)ccc21)C1CCCCC1 (centres undefined) | 60 nM and 120 nM
CCN(C(=O)CCn1c2cccc(F)c2nc1[C@H]1CC[C@H](CC)CC1)C1CCCCC1 | 30 nM
CCN(C(=O)CCn1c(N2CCC(C)CC2)nc2ccccc21)C1CCCCC1 | 210 nM
CCN(C(=O)CCn1c2ccc(Br)cc2nc1[C@H]1CC[C@H](CC)CC1)C1CCCCC1 | 10 nM
CCN(C(=O)CCn1c2c(F)cccc2nc1[C@H]1CC[C@H](CC)CC1)C1CCCCC1 | 40 nM
CCN(C(=O)CCn1c2cc(-c3cnn(C)c3)ccc2nc1[C@H]1CC[C@H](CC)CC1)C1CCCCC1 | 50 nM
CCN(C(=O)CCn1c2cc(Br)ccc2nc1[C@H]1CC[C@H](CC)CC1)C1CCCCC1 | 30 nM
CCN(C(=O)CCn1c(-c2ccc(OCC(F)(F)F)cc2)nc2ccccc21)C1CCCCC1 | 40 nM
CCN(C(=O)CCn1c(C2CCCCC2)nc2ccccc21)C1CCCCC1 | 70 nM
CCN(C(=O)CCn1c2cc(F)ccc2nc1[C@H]1CC[C@H](CC)CC1)C1CCCCC1 | 20 nM
CCOC(=O)N1CCCC(c2nc3cc(F)ccc3n2CCC(=O)N(CC)C2CCCCC2)C1 (centres undefined) | 110 nM and 290 nM
CN(C(=O)CCn1c(C2CCCCC2)nc2ccccc21)C1CCCCC1 | 280 nM
CCN(C(=O)CCn1c(N2CCC(C(C)(C)C)CC2)nc2ccccc21)C1CCCCC1 | 10 nM
CCN(C(=O)CCn1c(-c2ccc(-n3ccnn3)cc2)nc2ccccc21)C1CCCCC1 | 3770 nM
CC1(C)[C@@H]2CC[C@@]1(C)[C@H](NC(=O)CCn1c(C3CCCCC3)nc3ccccc31)C2 | 200 nM
CCN(C(=O)CCn1c2cccc(C[C@H]3CCOC3)c2nc1[C@H]1CC[C@H](CC)CC1)C1CCCCC1 | 520 nM
CCN(C(=O)CCn1c(N2CCC(F)(F)CC2)nc2ccccc21)C1CCCCC1 | 220 nM

SMILES | IC50
CCN(C(=O)CCn1c2ccc(OC)cc2nc1[C@H]1CC[C@H](CC)CC1)C1CCCCC1 | 150 nM
CCN(C(=O)CCn1c2ncccc2nc1[C@H]1CC[C@H](CC)CC1)C1CCCCC1 | 300 nM
CCN(C(=O)CCn1c2cccc(N3CCOCC3)c2nc1[C@H]1CC[C@H](CC)CC1)C1CCCCC1 | 3440 nM
CCc1nsc(N2CCCC(c3nc4ccccc4n3CCC(=O)N(CC)C3CCCCC3)C2)n1 (centres undefined) | 80 nM
CCCOC(=O)N1CCCC(c2nc3ccccc3n2CCC(=O)N(CC)C2CCCCC2)C1 (centres undefined) | 150 nM
CCN(C(=O)CCn1c2cc(C[C@H]3CCOC3)ccc2nc1[C@H]1CC[C@H](CC)CC1)C1CCCCC1 | 380 nM
CCN(C(=O)CCn1c2ccncc2nc1[C@H]1CC[C@H](CC)CC1)C1CCCCC1 | 150 nM
CCN(C(=O)CCn1c2cc(CN)ccc2nc1[C@H]1CC[C@H](CC)CC1)C1CCCCC1 | 7320 nM
CC(C)(C)OC(=O)NCC1CCC(c2nc3ccccc3n2CCC(=O)NC2C[C@H]3CC[C@]2(C)C3(C)C)CC1 (some centres undefined) | 1350 nM
CCOc1ccc(-c2nc3ccccc3n2CCC(=O)N(CC)C2CCCCC2)cn1 | 240 nM
CCN(C(=O)CCn1c(C2CCCN(C(=O)OC(C)C)C2)nc2ccccc21)C1CCCCC1 (centres undefined) | 260 nM
CCCCOC(=O)N1CCCC(c2nc3ccccc3n2CCC(=O)N(CC)C2CCCCC2)C1 (centres undefined) | 70 nM
CCOC(=O)N1CCCC(c2nc3ccc(F)cc3n2CCC(=O)N(CC)C2CCCCC2)C1 (centres undefined) | 1090 nM
CCN(C(=O)CCn1c2cc(C#N)ccc2nc1[C@H]1CC[C@H](CC)CC1)C1CCCCC1 | 790 nM
CCN(C(=O)CCn1c(CN2CCC(C(C)(C)C)CC2)nc2ccccc21)C1CCCCC1 | 100 nM
CCN(C(=O)CCn1c(C2CCC(C)N(c3cccc(OC)n3)C2)nc2ccccc21)C1CCCCC1 (centres undefined) | 20 nM
CC1CCN(C(=O)CCn2c(C3CCCCC3)nc3ccccc32)CC1 | 2340 nM
CCC1CCN(Cc2nc3cc(C)ccc3n2CCC(=O)N(CC)C2CCCCC2)CC1 | 1050 nM
CCC1CCN(Cc2nc3ccccc3n2CCC(=O)N(CC)C2CCCCC2)CC1 | 210 nM
CCN(C(=O)CCn1c(C2CCCN(c3nccc(OC)n3)C2)nc2ccccc21)C1CCCCC1 (centres undefined) | 80 nM

SMILES | IC50
CCN(C(=O)CCn1c2ccc(C#N)cc2nc1[C@H]1CC[C@H](CC)CC1)C1CCCCC1 | 420 nM
CCN(C(=O)CCn1c2cnccc2nc1[C@H]1CC[C@H](CC)CC1)C1CCCCC1 | 840 nM
CCN(C(=O)CCn1c(C2CCC(C)N(c3nccc(OC)n3)C2)nc2ccccc21)C1CCCCC1 (centres undefined) | 140 nM
CCN(C(=O)CCn1c2cc(CN3CC(F)(F)C3)ccc2nc1[C@H]1CC[C@H](CC)CC1)C1CCCCC1 | 1770 nM
CCN(C(=O)CCn1c2ccc(C(F)(F)F)cc2nc1[C@H]1CC[C@H](CC)CC1)C1CCCCC1 | 10 nM
CCN(C(=O)CCn1c2cccc(C(F)F)c2nc1[C@H]1CC[C@H](C)CC1)C1CCCCC1 | 360 nM
CCN(C(=O)CCn1c(C2CCCN(c3cccc(OC)n3)C2)nc2ccccc21)C1CCCCC1 (centres undefined) | 10 nM
CCN(C(=O)CCn1c(C2CCN(C(=O)OC(C)(C)C)C2)nc2cc(F)ccc21)C1CCCCC1 (centres undefined) | 400 nM
CCN(C(=O)CCn1c(N2CCC(C(F)F)CC2)nc2ccccc21)C1CCCCC1 | 170 nM
CCN(C(=O)CCn1c2cc(CN3CCN(CC(F)(F)F)CC3)ccc2nc1[C@H]1CC[C@H](CC)CC1)C1CCCCC1 | 1480 nM
CCN(C(=O)CCn1c2cccnc2nc1[C@H]1CC[C@H](CC)CC1)C1CCCCC1 | 660 nM
CCN(C(=O)CCn1c2ccc(CO)cc2nc1[C@H]1CC[C@H](CC)CC1)C1CCCCC1 | 770 nM
CCCOC(=O)N1CC(c2nc3ccccc3n2CCC(=O)N(CC)C2CCCCC2)CCC1C (centres undefined) | 110 nM
CCN(C(=O)CCn1c(C2CCCN(c3ccccn3)C2)nc2ccccc21)C1CCCCC1 (centres undefined) | 90 nM
CCN(C(=O)CCn1c(N2CCC[C@H](NC(=O)OC(C)(C)C)C2)nc2ccccc21)C1CCCCC1 | 7990 nM
CC(C)(C)OC(=O)N1CCC(c2nc3ccccc3n2CCC(=O)NC2C[C@H]3CC[C@]2(C)C3(C)C)C1 (some centres undefined) | 3400 nM
CCN(C(=O)CCn1c2ccc(C3CC3)cc2nc1[C@H]1CC[C@H](CC)CC1)C1CCCCC1 | 130 nM
CCN(C(=O)CCn1c(C2CCCN(c3nccc(C)n3)C2)nc2ccccc21)C1CCCCC1 (centres undefined) | 230 nM
CC1(C)[C@@H]2CC[C@@]1(C)[C@H](NC(=O)CCn1c3ccccc3nc1[C@H]1CC[C@@H](C(C)(C)C)CC1)C2 | 60 nM
